The values below come from patent publication US11858905B1, “Cathepsin L inhibitors” (priority 2023, dated 2024).

The subject of one series is RSV. To be noted: RSV infected mice; cited from earlier work.
For a further series, the system named is SARS-CoV-2 PsVs. Description: microbe, parasite or virus in culture. Type of series: cell-based. Conditions: Severe acute respiratory syndrome coronavirus 2, Vero C1008, 24 h.
The target in the next series is human CatL (Homo sapiens (Human), UniProt P07711). Description: Human Cathepsin L (CatL) enzymatic assay. Type of series: biochemical. Conditions: CatL 0.05 nM, substrate 500 nM, pH 5.5; read-out: Enzymatic inhibition IC50.

Each structure is given as a SMILES string.

Sequence of human CatL (P07711 whole entry, looked up): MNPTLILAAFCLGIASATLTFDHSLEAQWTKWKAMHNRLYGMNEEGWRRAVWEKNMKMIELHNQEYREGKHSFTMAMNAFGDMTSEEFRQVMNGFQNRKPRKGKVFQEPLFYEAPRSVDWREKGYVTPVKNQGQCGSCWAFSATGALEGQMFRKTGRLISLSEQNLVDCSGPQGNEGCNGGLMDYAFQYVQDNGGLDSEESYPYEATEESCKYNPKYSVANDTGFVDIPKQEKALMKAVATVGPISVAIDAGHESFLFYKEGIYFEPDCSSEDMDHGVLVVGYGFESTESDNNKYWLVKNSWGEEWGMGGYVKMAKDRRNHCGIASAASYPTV

Consider `CC(C)C[C@H](NC(=O)[C@H]1O[C@@H]1C(=O)O)C(=O)NCCCCN=C(N)N` [Compound E64, E64], for which, in the series with RSV, the airway hyperresponsiveness result is listed as “prevented airway hyperresponsiveness” and the viral clearance entry is on record as “enhanced viral clearance”.

For the compound `NC(=O)c1ncn([C@@H]2O[C@H](CO)[C@@H](O)[C@H]2O)n1` [ribavirin], in the series with RSV, the airway hyperresponsiveness result is given as “prevented airway hyperresponsiveness” and the viral clearance entry is “enhanced viral clearance”.

Broadly, the IC50 is the point on the concentration scale where inhibition reaches its midpoint. As for `N#CC1(NC(=O)[C@H](Cc2nc3c(-c4cn[nH]c4)cccc3o2)NC(=O)c2cccc(Cl)c2)CC1` [Compound 23, (S)—N-(3-(4-(1H-pyrazol-4-yl)benzo[d]oxazol-2-yl)-1-((1-cyanocyclopropyl)amino)-1-oxopropan-2-yl)-3-chlorobenzamide], the activity at 0.5 µM in the series with SARS-CoV-2 PsVs (read-out: % Infection rate at 500 nM) is 93%. Further, the activity at 5 µM in the series on SARS-CoV-2 PsVs (read-out: % Infection rate at 5 uM) worked out at 98%. Further, on human CatL, the IC50 was determined as 361 nM.
